Test results from patent US7264629B2, “Photodynamic therapy for the treatment of hair loss” (QLT, Inc., priority 2001, dated 2007).
Values belong to the compound of their own block, whether it stands above or below them.

Assays:
[1] = test system: patients; settings: topical 0.5% HP and UVA three times a week; first week of treatment; two patients; cited from earlier work
[2] = test system: alopecia areata patients; settings: 2% khellin and UVA, cited from earlier work
[3] = test system: human males with type II or III Vertex alopecia (AGA); assay: Stimulation of hair growth in human subjects with AGA (single topical PDT, terminal hair counts); format: in vivo; settings: 0.2% w/w ointment, 50 and 75 J/cm^2; 10 subjects; during and after treatment
Experimental: A total of 10 subjects were treated. All subjects were human males over 18 years of age and had type II or III Vertex alopecia, rated according to the modified Hamilton-Norwood scale. All subjects received a single application of topical QLT0074 ointment 0.2% weight in weight (w/w) to two of three circular test sites on the vertex area of the scalp. The amount of ointment applied to each test site was approximately 224 mg (about 0.44 mg of photosensitizer per test site). After 2 hours the excess drug was removed and red light (LED's—690 nm) was administered to two of the three sites. The other test site served as a control with no drug or light administration.
Two light dose cohorts (50 and 75 J/cm^2) were investigated with each cohort having 5 subjects.
Safety was assessed by monitoring all adverse events during and after the treatment.
The efficacy was assessed by hair counts 3 months after the treatment and compared to baseline counts.

[4] = test system: shaved Balb/C mice; assay: PDT-induced stimulation of hair growth using topically-applied photosensitizer in shaved Balb/c mice; format: in vivo
Experimental: To prepare QLT 0074-containing ointment, QLT 0074 photosensitizer was dissolved in glacial acetic acid to solubilize it. The solution was then frozen in a dry ice/isopropanol bath and the acetic acid was removed by lyophilization. The resultant material was a fine fluffy powder. […] The ointment base was prepared by first warming polyethylene glycol 200 (PEG 200) to 80-90° C. with stirring. Polyethylene glycol 3350 (PEG 3.35 K) was then added with stirring, followed by oleyl alcohol, and then diethylene glycol monoethyl ether. Stirring was continued until the solution was clear. The ointment base was cooled to approximately 50° C., and the QLT 0074 was added with stirring. Stirring was continued as the mixture cooled, until a homogenous paste was achieved. […]
Female Balb/C mice (8-14 weeks old) were supplied by Charles River Canada (St. Constance, Quebec). […] Mice were randomly assigned to PDT treatment and controlled groups, and were monitored for pain or distress.
Eighteen mice were shaved to remove hair from the back and both flanks. […] QLT 0074-containing ointment was applied to a square spot on the left side of each of mice 1-9 using a square template, with the same quantity of ointment applied to each spot. […]

[5] = test system: shaved female Balb/c mice; assay: Optimization of drug concentration, irradiation dose and light intensity on hair regrowth in shaved mice, topical QLT 0074; format: in vivo; settings: for hair regrowth at the treatment site: 0.5% ointment
Experimental: A study was performed to assess the effect of drug concentration (0.005, 0.05, or 0.5% QLT 0074 ointment), light dose (50, 100 or 150 J/cm^2 red light) and light intensity 50 or 200 mW/cm) on hair regrowth in shaved female Balb/c mice. Mice received QLT 0074 ointment applied to the skin for 30 minutes, followed by a 15-minute treatment with placebo ointment and exposure to red light (688 nm). One group received no QLT 0074 ointment, only the placebo ointment and light exposure. Preparation of ointments and treatment procedure was as outlined in Example 2, except that different amounts of QLT 0074 were added.
Ointments were prepared as in Example 2, except that different amounts of QLT 0074 (on a weight/weight basis) were incorporated into the ointments. The treatment procedure was as outlined in Example 2.

[6] = test system: C3H/HeJ female mice exhibiting hair loss; assay: Stimulation of hair growth in a mouse model of alopecia areata (topical PDT); format: in vivo; settings: 0.2% (w/w) ointment
Description: A disease closely resembling human alopecia areata has been observed in aging (over 6-month old) C3H/HeJ mice (see Sundberg, J. P et al, Alopecia Areata in Aging C3H/HeJ Mice, Journal of Investigative Dermatology 102(6): 847-856 [1994[). […] All other areas outside of the treatment site were left untreated.
Following this treatment, all 3 mice received a dose of 50 J/cm^2 688 nm light delivered at a rate of 50 mw/cm^2 in the 1.5 square area. Mice were monitored for skin photosensitivity reactions on Days 1 and 3 after light exposure and observed for hair re-growth for up to 19 days post-treatment.

Structure (SMILES): CC1=C(CCC(=O)O)c2cc3[nH]c(cc4nc(cc5[nH]c(cc1n2)c(C)c5C(C)O)C(C)=C4C(C)O)c(C)c3CCC(=O)O (centres unmarked) [hematoporphyrin, Hematoporphyrin]
- skin reactions in treated sites [1]: significant erythema and mild scaling followed by hyperpigmentation

Structure (SMILES): COc1c2occc2c(OC)c2c(=O)cc(C)oc12 [khellin]
- phototoxicity [2]: did not cause phototoxicity
- number of patients treated successfully ([2]; of the 10 patients tested): 5

- skin reactions following treatment ([5]; some treatments, typically highest drug and light dose combinations): Mild skin reactions were evident
Structure (SMILES): C=Cc1c(C)c2cc3nc(cc4[nH]c(cc5nc(cc1[nH]2)C(C)=C5CCC(=O)OCCO)c(CCC(=O)OCCO)c4C)[C@@]1(C)C3=CC=C(C(=O)OC)[C@H]1C(=O)OC [QLT 0074]
- serious adverse events [3]: No serious adverse events were reported
- hair re-growth, representative mouse (FIG. 4) ([4]; 17 days after PDT treatment): Hair re-growth was observed
- number of mice that developed hair growth on the treated area by day 17 ([4]; out of nine mice, 0.5% w/w ointment 30 min, 688 nm 50 J/cm^2 at 200 mW/cm^2): five
- hair growth ([5]; 0.05% ointment, any light dose): did not exhibit hair growth
- hair regrowth at the treatment site ([5]; 50, 100 or 150 J/cm^2 at 200 mW/cm^2): Hair regrowth at the treatment site was observed
- hair regrowth at the treatment site ([5]; 50 or 100 J/cm^2 red light at 50 mW/cm^2): Hair regrowth at the treatment site was also observed
- moderate or severe skin photosensitivity reactions ([5]; all drug and light dose combinations): no moderate or severe skin photosensitivity reactions were observed
- number of animals with hair regrowth at the treatment site ([5]; of three animals, 0.005% ointment, 150 J/cm^2 at 200 mW/cm^2): one
- skin photosensitivity reactions ([6]; 50 J/cm^2 688 nm at 50 mw/cm^2, Days 1 and 3 after light exposure): no skin photosensitivity reactions were observed
- number of mice with increased amount of hair in the treatment area ([6]; of the 3 mice treated, day 7 post-treatment, 50 J/cm^2 688 nm): 2
